Experimental data as given in ChEMBL document CHEMBL1806400, “New isoprenylated flavonoids and adipogenesis-promoting constituents from Morus notabilis” (2011).
Activity calls are given as the source filed them. The rule behind the calls is not given here.

Legend:
3T3-L1 [1] = assay: Induction of adipogenesis in mouse 3T3L1 cells assessed as increase in triglyceride content after 8 days by Oil red O staining relative to control; assay type: functional, cell-based
3T3-L1 [2] = assay: Induction of adipogenesis in mouse 3T3L1 cells assessed as increase in triglyceride content at 7.5 uM after 8 days by Oil red O staining relative to control; assay type: functional
3T3-L1 [3] = assay: Induction of adipogenesis in mouse 3T3L1 cells assessed as increase in triglyceride content at 15 uM after 8 days by Oil red O staining relative to control; assay type: functional
3T3-L1 [4] = assay: Upregulation of aP2 gene expression in mouse 3T3L1 cells by RT-PCR analysis; assay type: functional, cell-based
3T3-L1 [5] = assay: Upregulation of aP2 protein expression in mouse 3T3L1 cells by Western blot analysis; assay type: functional, cell-based
3T3-L1 [6] = assay: Upregulation of GLUT4 gene expression in mouse 3T3L1 cells by RT-PCR analysis; assay type: functional, cell-based
3T3-L1 [7] = assay: Upregulation of GLUT4 protein expression in mouse 3T3L1 cells by Western blot analysis; assay type: functional, cell-based
3T3-L1 [8] = assay: Induction of adipogenesis in mouse 3T3L1 cells assessed as increase in triglyceride content at 5 uM after 8 days by Oil red O staining relative to control; assay type: functional
3T3-L1 [9] = assay: Induction of adipogenesis in mouse 3T3L1 cells assessed as increase in triglyceride content at 10 uM after 8 days by Oil red O staining relative to control; assay type: functional
3T3-L1 [10] = assay: Induction of adipogenesis in mouse 3T3L1 cells assessed as increase in triglyceride content at 1 uM after 8 days by Oil red O staining relative to control; assay type: functional

## CC(C)=CCc1c(O)ccc(C(=O)[C@H]2[C@@H](c3c(O)ccc(C(=O)/C=C/c4ccc(O)cc4O)c3O)C=C(C)C[C@@H]2c2ccc(O)cc2O)c1O
3T3-L1 [1]
  Activity: inactive

## CC(C)=CCc1c(O)ccc(C(=O)[C@H]2[C@@H](c3c(O)cc(-c4cc5ccc(O)cc5o4)cc3O)C=C(C)C[C@@H]2c2ccc(O)cc2O)c1O [CHALCOMORACIN]
3T3-L1 [2]
  Activity: 109.99%
3T3-L1 [3]
  Activity: 125.36%
3T3-L1 [4]
  Activity: inactive
3T3-L1 [5]
  Activity: Active
3T3-L1 [6]
  Activity: inactive
3T3-L1 [7]
  Activity: inactive

## COc1c(-c2ccc(O)c(O)c2C/C=C(\C)CCC=C(C)C)oc2cc(O)cc(O)c2c1=O [NOTABILISIN A]
3T3-L1 [8]
  Activity: 305.32%
3T3-L1 [9]
  Activity: 513.55%
3T3-L1 [4]
  Activity: Active
3T3-L1 [5]
  Activity: Active
3T3-L1 [6]
  Activity: Active
3T3-L1 [7]
  Activity: Active

## CC(C)=CCC/C(C)=C/Cc1c(-c2oc3c(CC=C(C)C)c(O)cc(O)c3c(=O)c2O)ccc(O)c1O [NOTABILISIN C]
3T3-L1 [2]
  Activity: 312.24%
3T3-L1 [3]
  Activity: 948.51%
3T3-L1 [4]
  Activity: Active
3T3-L1 [5]
  Activity: Active
3T3-L1 [6]
  Activity: Active
3T3-L1 [7]
  Activity: Active

## CN(CCOc1ccc(CC2SC(=O)NC2=O)cc1)c1ccccn1 (stereo not given) [ROSIGLITAZONE]
3T3-L1 [10]
  Activity: 984.24%
